From a melting point compilation (Tetko et al.; mined from patent text by program, amines drawn as free bases though some values may be those of a salt)

For `COc1ccccc1NC(=O)Nc1nc(Oc2ccc3ccccc3c2)nc(N(CCC(=O)O)Cc2ccc(F)cc2)n1`, the melting point was 211 to 217 °C. `Cc1cc(C(=O)c2cccs2)cc(C)c1OCC(=O)O` showed a melting point of 115 °C. In the case of `CC(CN(C)C)CN1c2ccccc2OCOc2ccc(Cl)cc21` (single isomer, unassigned; (-)), the melting point is reported as 92 to 95 °C. In the case of `CC(=O)Nc1cccc2c1C(=O)OC2=O`, the melting point is reported as 180 to 183 °C. `Cc1c(C)c2c(c(C)c1NC(=O)CC(C)(C)C)C(c1cccc(C3OCCO3)c1)CO2` (centres undefined) gave a melting point of 168 to 169 °C. With `COC(=O)c1cccc(-c2cccc(CC(=O)O)c2)c1` the melting point was 84.5 to 85.5 °C. `CCCC(=O)c1c[nH]c2c(N3C(=O)c4ccccc4C3=O)cccc2c1=O` showed a melting point of 318 to 320 °C. Work on `O=C(O)Cc1c(C(=O)c2cccc(F)c2)[nH]c2cc(Cl)ccc12` yielded a melting point of 278 to 281 °C. Work on `CCCc1nn(C)c2c1N=C(c1cc(CCC(=O)O)ccc1OCC)NC2` yielded a melting point of 165 to 167 °C. Work on `O=[N+]([O-])c1ccc2c(c1)CS(=O)(=O)N2CCF` yielded a melting point of 142 to 144 °C. With `CC(C)=CCN1c2nc(Cl)ccc2NC(=O)[C@@H]1C` the melting point was 136 to 137 °C. In the case of `Oc1c(Cc2ccccc2)cc(Br)c2ccccc12`, the melting point is reported as 123 to 125 °C. Compound `O=C(c1nc2ccccc2s1)C1CCN(CCc2ccccc2)CC1` has a melting point of 108 to 110 °C. Work on `O=C(O)Cc1sc2nc3ncccc3n2c1-c1ccc(Cl)cc1` yielded a melting point of 250 to 252 °C. Work on `Cc1c(C)c2c(c(C)c1NC(=O)CC(C)(C)C)C(c1ccccn1)C(C)(C)O2` (centres undefined) yielded a melting point of 210 to 212 °C. For `COc1cc(Cl)cc(COc2cccc(OCc3ccc4ccccc4n3)c2)c1OCC(=O)O`, the melting point was 185 to 190 °C. Work on `Cn1cc(Cc2cc3cccc(-c4cccc(C(=O)NCCO)c4)c3s2)cc(Cl)c1=O` yielded a melting point of 210 to 211 °C. Work on `CC(C)CSc1ccc(-c2nc(=O)c3ccccc3s2)cn1` yielded a melting point of 92.8 to 93.1 °C. With `NC(=O)Cc1cccc(-c2csc(N=C(N)N)n2)n1` the melting point was 254 °C. `CN1CCN(C2Cc3ccccc3Sc3cc(F)c(F)cc32)CC1` (centres undefined) showed a melting point of 106 to 108 °C. `C1=C(COc2ccccc2)CCN(Cc2c[nH]c3ccccc23)C1` showed a melting point of 140 to 142 °C. For `C#CCOc1ccccc1-n1cnc2cc(Nc3nnc(C)c4ccccc34)ccc21`, the melting point was 88 to 90 °C. Compound `CSc1[nH]n(C2CCCC2)c2nc(-c3ccncc3)nc(=O)c1-2` has a melting point of 272 to 274 °C. `CC1(C)OC[C@H]([C@@H]2CNC(=O)C2)O1` gave a melting point of 84 to 86 °C. Compound `COC1(c2cccc3[nH]ccc23)CCCNC1` (centres undefined) has a melting point of 212 °C. With `CCCC(=O)N[C@H]1CC[C@H](CCN2CCC(c3cccc4c3CCO4)CC2)CC1` the melting point was 196 °C. `O=c1[nH]c2ccccc2n1CCN1CCC(C(c2ccccc2)c2ccccc2)CC1` showed a melting point of 195 to 196 °C. In the case of `CCOC(=O)c1cn(CC)c2cc(C3CCCCC3)c(OC)cc2c1=O`, the melting point is reported as 154 to 156 °C. With `Oc1ccc2nc(-c3ccc(O)c4ccccc34)oc2c1` the melting point was 194 to 196 °C. Work on `CC1(C)C=C(c2ccccc2)c2cccc3c2N1C(=O)C3=O` yielded a melting point of 210 to 212 °C. `O=[N+]([O-])c1cc(C(F)(F)F)ccc1C(O)c1cnoc1C1CC1` (centres undefined) gave a melting point of 76 °C. `O=C(O)Cc1cc(Cl)cc(Cl)c1OCCc1ccccc1` gave a melting point of 73 to 76 °C. With `O=C(O)/C=C/c1ccc(Oc2c(-c3ccccc3)c(C3CC3)cc3cc(O)ccc23)cc1` the melting point was 242 to 243 °C. Compound `CCNCCCC(O)c1ccc(NS(C)(=O)=O)cc1` (centres undefined) has a melting point of 174 to 176 °C. Work on `Cc1nc2c(O[C@@H]3c4ccccc4C[C@H]3O)cc(C(=O)O)cn2c1C` (relative stereo) yielded a melting point of 229 to 231 °C. Work on `O=S(=O)(Nc1ccc2c(OCc3ccc(Br)cc3F)cccc2c1)C(F)(F)F` yielded a melting point of 123 to 125 °C. With `CCOc1cccc(CN2CCc3cc(O)ccc3C2)c1` the melting point was 120 to 121 °C. Work on `C#CCOCCOC(=O)COc1ccc(Cl)c2cccnc12` yielded a melting point of 53 °C. Work on `COc1ccc(-c2cnc(N3Cc4c([nH]c5ccccc5c4=O)C3c3ccc4c(c3)OCO4)nc2)cc1` (centres undefined) yielded a melting point of 325 to 327 °C.
